These results are taken from US20040044304A1, “Local drug delivery using photosensitizer-mediated and electromagnetic radiation enhanced vascular permeability” (priority 2002, published 2004).

The assay relates to blood vessels within the dorsal window chamber. It counts as in vivo, Syrian golden hamsters. Particulars: 150 kD FITC-Dextran conjugate; fluorescence microscopy. An excerpt:
Syrian golden hamsters (Charles River Laboratories, Kingston, N.Y.) weighing between 60-70 gram were surgically implanted with titanium back-pack window chambers as described ([…] et al., 1980; Colantuoni et al., 1984; […] et al., 1994). Prior to the surgical procedure, the dorsal surface of the mouse was shaved with electric clippers (Sunbeam Oster 2-Speed, 150 Cadillac Lane, McMinnville, Tenn., 37110) and then the shaved skin covered in a depilatory cream (Nair, Carter Products, New York, N.Y., 10105) for 10 minutes to remove the remaining hair. A dorsal skin fold consisting of two layers of skin and muscle tissue was then sandwiched between two opposing titanium frames (Campus Research Machine Shop, University of California, San Diego 9500 Gilman Drive, La Jolla, Calif.) with a 15 mm circular opening in each. Layers of skin and muscle fascia were separated from the sub-cutaneous tissue, and removed until a thin monolayer of muscle and one layer of intact skin remained. A coverglass (Type Circle 1, Part #12-545-80 sourced from Fisher Scientific, 2761 Walnut Avenue, Tustin, Calif., 92780) held by an expansion ring in the circular window of one titanium frame was then placed on the exposed tissue to allow direct microscopic visualization of the vasculature. The window in the second opposing titanium frame was left open exposing the intact skin. Two days following the implantation of the titanium chamber, an in-dwelling PE10 catheter (VVR Scientific, Westchester, Pa.) was implanted in the carotid artery. The catheter tubing was passed sub-cutaneously from the ventral to the dorsal side of the neck, and exteriorized through the skin at the base of the chamber. The patency of the catheter was ensured by daily flushing of the in-dwelling implanted tip with 0.005-0.01 ml of heparinized saline (40 IU/ml). The heparin was sourced from Upjohn Co., 100 Route […], Prepack, N.J., 07977, and the saline from Abbott Laboratories, North Chicago, Ill., 60064. Microvascular observations using an intra-vital microscope were not undertaken until at least 4 days post-chamber implantation to mitigate against post-surgical trauma, and to confirm that blood vessels within the chamber were functioning and intact and patent. A chamber was considered suitable for subsequent studies if microscopic examination of the preparation met the following criteria (as applied in […] et al., 1994): The intra-vital microscopic studies were undertaken on un-sedated animals held in a Plexiglass tube (Campus Research Machine Shop, University of California, San Diego 9500 Gilman Drive, La Jolla, Calif.) from which the window chamber sandwich protruded horizontally, allowing visualization of the chamber on the microscope stage. The Plexiglass tube acted to restrain the animals without impeding respiration. The intra-vital microscopy was performed using a Leitz Ortholux II (McBain Instruments, Inc., 9601 […] Avenue, Chatsworth, Calif., 91311) fitted with a Leitz Wetzlar 25× saline immersion objective lens, 0.6 numerical aperture (McBain Instruments, Inc., 9601 […] Avenue, Chatsworth, Calif., 91311), a Leitz Wetzlar 10× dry Planfluotar lens, 0.3 numerical aperture (McBain Instruments, Inc., 9601 […] Avenue, Chatsworth, Calif., 91311) and a Leitz Wetzlar 4× EF dry lens, 0.12 numerical aperture (McBain Instruments, Inc., 9601 […] Avenue, Chatsworth, Calif., 91311). A 100 Watt Hg light source (Olympus Corporation, 2 Corporate Center Drive, Melville, N.Y., 11747-3157) was used for both trans- and epi-illumination. For the trans-illumination studies the light was filtered using a 420 nm blue filter which selectively passed light in the region of the maximum absorbance band of hemoglobin, causing the red blood cells to appear as dark objects against a gray background. In addition, a heat filter was placed in the light path prior to the condenser to prevent hyperthermic effects on the tissue being examined.

Take “fluorescein diisothiocyanate dextran [FITC-Dextran, reference compound]”: the “Retention of the molecule in the treated tissue field following PhotoPoint-induced release from the vasculature” value is on record as “at least 48 hrs”.
